Data on 14 molecules can be found in patent US9096646B2, “CXCR4 receptor compounds” (priority 2008, dated 2015).

“And” between values parts separate entries of the source, which are not always exact repeats. Equal values may be shown once. Read-outs that look alike come from different tables or passages of the source. Peptide text beside a SMILES is read from it. * marks the point of attachment. Palmitoyl = CCCCCCCCCCCCCCCC(=O)*

In experiment [1] the target is T1, CXCR4 (Homo sapiens, UniProt P61073). In words: Chemotaxis assay using SUP B-15 cells. It is filed as cell-based. Set-up: A similar procedure was followed for chemotaxis using SUP B-15 cells; endogenous in cells; host or cells: SUP B-15 cells. The following applies: for AUC (% of vehicle) / Max (% of vehicle) / Peak Test Comp.: Table 19, i2 loop, SUPB-15 cells, conc 1.0 uM; for activity at 1 µM: SUP-B15, Table 18, i1 loop, SUP B-15 cells, drug conc 1.0 uM. An excerpt:
Chemotaxis assays were utilized to determine the effect of compound on the directed migration of cells in response to chemokine. Cells that express a receptor of interest were placed in the upper chamber of a Transwell chemotaxis plate (Corning) and allowed to migrate through a polycarbonate membrane to a lower chamber containing the appropriate receptor-specific ligand. To test for antagonist or potentiating activity, cells were mixed with the desired concentration of compound prior to addition to the upper chamber. Conversely, agonist activity was determined by adding compound in the bottom chamber only without endogenous chemokine. The effect of compound is quantified by several parameters, including the extent of maximum response, the shift of agonist dose-response curves, and the area under the curve.
To measure the CXCR4-dependent migration of cells, the appropriate concentration of CXCL12 (SDF1a) or test compound was diluted in phenol red-free RMPI-1640/20 mM HEPES/0.5% BSA buffer and placed in the bottom chamber of a transwell apparatus. CCRF-CEM cells, a human T-cell ALL line that endogenously expresses CXCR4, were washed twice in buffer and resuspended at 133,000 cells/ml. A 75 μl sample of this suspension is mixed with the test compound of interest and placed in the upper chamber of a 5-micron transwell apparatus.
To initiate cell migration, the assembled transwell plate was placed in a 37° C., […] incubator for a specified time interval, typically between 30 and 120 minutes. After incubation, the unit was disassembled and the lower chamber placed at −80° C. overnight to facilitate lysis of cells. To quantify migrated cells, plates were thawed at 37° C. in a humidified chamber, and then a sample volume was removed from each well and mixed with an equal volume of CyQuant (Invitrogen) working solution in opaque plates. The fluorescence intensity of each well represents the DNA content and is directly proportional to cell number. Each sample was typically run in duplicate or triplicate and each plate included two separate negative controls. The plate background control, which included no cells in the upper chamber, was subtracted from all values. The negative control had no agonist added in the lower chamber, and served to establish the baseline for random migration. A similar procedure was followed for chemotaxis using SUP B-15 cells.

Experiment [2] deals with T1, CXCR4. In words: Chemotaxis assay, effect on SDF1-a (CXCL12) induced migration of CCRF-CEM cells. Format: cell-based. The following applies: CCRF-CEM, Table 18, i1 loop, CEM cells; for activity at 1 µM: drug conc 1.0 uM; for activity at 0.03 µM: drug conc 0.03 uM; for activity at 0.1 µM: drug conc 0.1 uM; for activity at 0.3 µM: drug conc 0.3 uM; for activity at 3 µM: drug conc 3.0 uM. Further details: a human T-cell ALL line that endogenously expresses CXCR4; endogenous in cells; host or cells: CCRF-CEM (human T-cell ALL line).
Description: To initiate cell migration, the assembled transwell plate was placed in a 37° C., 0.5% CO2 incubator for a specified time interval, typically between 30 and 120 minutes. After incubation, the unit was disassembled and the lower chamber placed at −80° C. overnight to facilitate lysis of cells. To quantify migrated cells, plates were thawed at 37° C. in a humidified chamber, and then a sample volume was removed from each well and mixed with an equal volume of CyQuant (Invitrogen) working solution in opaque plates. The fluorescence intensity of each well represents the DNA content and is directly proportional to cell number. […] The plate background control, which included no cells in the upper chamber, was subtracted from all values.

T1 sequence (P61073 whole entry): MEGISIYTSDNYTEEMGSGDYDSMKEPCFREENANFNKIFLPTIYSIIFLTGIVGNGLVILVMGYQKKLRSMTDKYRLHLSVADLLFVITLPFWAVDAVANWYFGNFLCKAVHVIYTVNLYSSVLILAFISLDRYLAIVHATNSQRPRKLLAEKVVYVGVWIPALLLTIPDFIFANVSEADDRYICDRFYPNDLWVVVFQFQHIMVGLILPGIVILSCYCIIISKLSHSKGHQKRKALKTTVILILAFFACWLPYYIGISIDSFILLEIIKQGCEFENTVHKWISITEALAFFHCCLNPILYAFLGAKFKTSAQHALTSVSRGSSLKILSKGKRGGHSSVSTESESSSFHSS

Turning to “78 (Palmitoyl-VHATNSQRPRKLLA-NH2; not fully specified) [Compound 78]”, in the experiment with CXCR4 [1], the “AUC (% of vehicle)” value was 71.85 % of vehicle, the “Max (% of vehicle)” value is recorded as 72.31 % of vehicle and the “Peak Test Comp.” value stood at 5 nM.
Regarding `CCCCCCCCCCCCCCCC(=O)N[C@@H](CCSC)C(=O)NCC(=O)N[C@@H](Cc1ccc(O)cc1)C(=O)N[C@@H](CCC(N)=O)C(=O)N[C@@H](CCCCN)C(=O)N[C@@H](CCCCN)C(=O)N[C@@H](CC(C)C)C(=O)N[C@@H](CCCNC(=N)N)C(=O)N[C@@H](CO)C(=O)N[C@@H](CCSC)C(=O)N[C@H](C(=O)N[C@@H](CC(=O)O)C(=O)N[C@@H](CCCCN)C(=O)N[C@@H](Cc1ccc(O)cc1)C(=O)N[C@@H](CCCNC(=N)N)C(=O)N[C@@H](CC(C)C)C(N)=O)[C@@H](C)O` [Compound 38, Pal-MGYQKKLRSMTDKYRL-amide] (Palmitoyl-MGYQKKLRSMTDKYRL-NH2), the activity at 1 µM on CXCR4 [1] (read-out: AUC (% of)) is 32.4%; at CXCR4 [1] (read-out: Max (% of)), 49.6%.
For the molecule `CCCCCCCCCCCCCCCC(=O)N[C@@H](CCCCN)C(=O)N[C@@H](CCCCN)C(=O)N[C@@H](CC(C)C)C(=O)N[C@@H](CCCNC(=N)N)C(=O)N[C@@H](CO)C(=O)N[C@@H](CCSC)C(=O)N[C@H](C(=O)N[C@@H](CC(=O)O)C(=O)N[C@@H](CCCCN)C(=O)N[C@@H](Cc1ccc(O)cc1)C(=O)N[C@@H](CCCNC(=N)N)C(=O)N[C@@H](CC(C)C)C(=O)N[C@@H](Cc1cnc[nH]1)C(=O)N[C@@H](CC(C)C)C(N)=O)[C@@H](C)O` [Compound 42] (Palmitoyl-KKLRSMTDKYRLHL-NH2), the activity at 1 µM amounted to 43.8% at CXCR4 [1] (read-out: AUC (% of)) and 33.5% at CXCR4 [1] (read-out: Max (% of)).
`CCCCCCCCCCCCCCCC(=O)N[C@H](C(=O)N[C@@H](CCSC)C(=O)NCC(=O)N[C@@H](Cc1ccc(O)cc1)C(=O)N[C@@H](CCC(N)=O)C(=O)N[C@@H](CCCCN)C(=O)N[C@@H](CCCCN)C(=O)N[C@@H](CC(C)C)C(=O)N[C@@H](CCCNC(=N)N)C(=O)N[C@@H](CO)C(=O)N[C@@H](CCSC)C(=O)N[C@H](C(=O)N[C@@H](CC(=O)O)C(N)=O)[C@@H](C)O)C(C)C` [Compound 35] (Palmitoyl-VMGYQKKLRSMTD-NH2): the activity at 1 µM came to 57.9% on CXCR4 [2] (read-out: AUC (% of)), 57% on CXCR4 [2] (read-out: Max (% of)), 31.7% at CXCR4 [1] (read-out: AUC (% of)) and 49.3% on CXCR4 [1] (read-out: Max (% of)).
For the molecule “79 (Palmitoyl-HATNSQRPRKL-NH2; not fully specified) [Compound 79]”, in the experiment with CXCR4 [1], the “AUC (% of vehicle)” value is 109.36 % of vehicle, the “Max (% of vehicle)” value was 109.68 % of vehicle and the “Peak Test Comp.” value was determined as 5 nM.
Take “81 (Palmitoyl-HATNSQRPRKLLAE-NH2; not fully specified) [Compound 81]”: in the experiment with CXCR4 [1], the “AUC (% of vehicle)” value is recorded as 79.85 % of vehicle, the “Max (% of vehicle)” value is on record as 76.46 % of vehicle and the “Peak Test Comp.” value was 5 nM.
In the case of 74 (DRYLAIVHATNSQRPRKLL) [Compound 74], in the experiment with CXCR4 [1], the “AUC (% of vehicle)” value was 90.39 % of vehicle and 77.13 % of vehicle; the “Max (% of vehicle)” value is 91.29 % of vehicle and 75.81 % of vehicle; the “Peak Test Comp.” value is recorded as 5 nM.
`CCCCCCCCCCCCCCCC(=O)N[C@@H](CCCCN)C(=O)N[C@@H](CCCCN)C(=O)N[C@@H](CC(C)C)C(=O)N[C@@H](CCCNC(=N)N)C(=O)N[C@@H](CO)C(=O)N[C@@H](CCSC)C(=O)N[C@H](C(=O)N[C@@H](CC(=O)O)C(=O)N[C@@H](CCCCN)C(=O)N[C@@H](Cc1ccc(O)cc1)C(=O)N[C@@H](CCCNC(=N)N)C(=O)N[C@@H](CC(C)C)C(=O)N[C@@H](Cc1cnc[nH]1)C(N)=O)[C@@H](C)O` [Compound 43] (Palmitoyl-KKLRSMTDKYRLH-NH2): at CXCR4 [2] (drug conc 0.01 uM, read-out: AUC (% of)), the activity at 0.01 µM was 110%. For the same molecule, on CXCR4 [2] (read-out: AUC (% of)), the activity at 0.03 µM was 110%, the activity at 0.1 µM is 108%, the activity at 0.3 µM turned out to be 97.9% and the activity at 3 µM was found to be 79.4%. Moreover, at CXCR4 [2] (read-out: Max (% of)), the activity at 0.03 µM is 92.7%, the activity at 0.1 µM was determined as 93.6%, the activity at 0.3 µM amounted to 84.5% and the activity at 1 µM worked out at 78.9%. The activity at 3 µM on CXCR4 [2] (read-out: Max (% of)) is 76.3%. Further, on CXCR4 [1] (read-out: AUC (% of)), the activity at 1 µM is 70.8%. Besides, the activity at 1 µM at CXCR4 [1] (read-out: Max (% of)) is 55.8%.
Turning to `CCCCCCCCCCCCCCCC(=O)N[C@@H](CCCCN)C(=O)N[C@@H](CCCCN)C(=O)N[C@@H](CC(C)C)C(=O)N[C@@H](CCCNC(=N)N)C(=O)N[C@@H](CO)C(=O)N[C@@H](CCSC)C(=O)N[C@H](C(=O)N[C@@H](CC(=O)O)C(=O)N[C@@H](CCCCN)C(=O)N[C@@H](Cc1ccc(O)cc1)C(=O)N[C@@H](CCCNC(=N)N)C(=O)N[C@@H](CC(C)C)C(N)=O)[C@@H](C)O` [Compound 44, Pal-KKLRSMTDKYRL-amide] (Palmitoyl-KKLRSMTDKYRL-NH2), the activity at 1 µM is 25.9% on CXCR4 [1] (read-out: AUC (% of)) and 31.5% at CXCR4 [1] (read-out: Max (% of)).
For `CCCCCCCCCCCCCCCC(=O)N[C@@H](CCCCN)C(=O)N[C@@H](CCCCN)C(=O)N[C@@H](CC(C)C)C(=O)N[C@@H](CCCNC(=N)N)C(=O)N[C@@H](CO)C(=O)N[C@@H](CCSC)C(=O)N[C@H](C(=O)N[C@@H](CC(=O)O)C(=O)N[C@@H](CCCCN)C(=O)N[C@@H](Cc1ccc(O)cc1)C(=O)N[C@@H](CCCNC(=N)N)C(N)=O)[C@@H](C)O` [Compound 45] (Palmitoyl-KKLRSMTDKYR-NH2), the activity at 1 µM on CXCR4 [1] (read-out: AUC (% of)) turned out to be 178%; at CXCR4 [1] (read-out: Max (% of)), 194%.
“83 (Palmitoyl-HATNSQRPRKLLAEKV-NH2; not fully specified) [Compound 83]”: in the experiment with CXCR4 [1], the “AUC (% of vehicle)” value is 126.36 % of vehicle, the “Max (% of vehicle)” value is listed as 110.06 % of vehicle and the “Peak Test Comp.” value came out at 5 nM.
For “82 (Palmitoyl-HATNSQRPRKLLAEK-NH2; not fully specified) [Compound 82]”, in the experiment with CXCR4 [1], the “AUC (% of vehicle)” value is 124.56 % of vehicle, the “Max (% of vehicle)” value is given as 126.31 % of vehicle and the “Peak Test Comp.” value is 1 nM.
As to `CCCCCCCCCCCCCCCC(=O)N[C@@H](Cc1ccc(O)cc1)C(=O)N[C@@H](CCC(N)=O)C(=O)N[C@@H](CCCCN)C(=O)N[C@@H](CCCCN)C(=O)N[C@@H](CC(C)C)C(=O)N[C@@H](CCCNC(=N)N)C(=O)N[C@@H](CO)C(=O)N[C@@H](CCSC)C(=O)N[C@H](C(=O)N[C@@H](CC(=O)O)C(=O)N[C@@H](CCCCN)C(=O)N[C@@H](Cc1ccc(O)cc1)C(=O)N[C@@H](CCCNC(=N)N)C(=O)N[C@@H](CC(C)C)C(=O)N[C@@H](Cc1cnc[nH]1)C(=O)N[C@@H](CC(C)C)C(=O)N[C@@H](CO)C(=O)N[C@H](C(N)=O)C(C)C)[C@@H](C)O` [Compound 40] (Palmitoyl-YQKKLRSMTDKYRLHLSV-NH2), the activity at 1 µM at CXCR4 [1] (read-out: AUC (% of)) is 71.9%; on CXCR4 [1] (read-out: Max (% of)), 71.2%.
As for “80 (Palmitoyl-HATNSQRPRKLLA-NH2; not fully specified) [Compound 80]”, in the experiment with CXCR4 [1], the “AUC (% of vehicle)” value is on record as 102.2 % of vehicle, the “Max (% of vehicle)” value is given as 69.02 % of vehicle and the “Peak Test Comp.” value was determined as 5 nM.
